In brackets after ≈: the same amount, converted by molar mass. Read-outs that look alike come from different tables or passages of the source. Where a SMILES comes first, the peptide text is derived from it. Where no end group is shown, it is not given here. The star is where a group is joined. Pentadecanoyl = CCCCCCCCCCCCCCC(=O)*; Tridecanoyl = CCCCCCCCCCCCC(=O)*; Myristoyl = CCCCCCCCCCCCCC(=O)*; Lauroyl = CCCCCCCCCCCC(=O)*
Tests used:
[1] = system: Staphylococcus aureus; assay type: cell-based
Protocol: (§1) MICs (minimal inhibitory concentrations) were determined for the hexapeptides of interest using a slightly modified version of the NCCLS (National Committee for Clinical Laboratory Standards) broth microdilution method as described previously (Steinberg et al., AAC 41: 1738, 1997). Briefly, antimicrobial agents were prepared as 10× concentrates in the most appropriate solvent. For the hexapeptide, 0.01% acetic acid containing 0.2% bovine serum albumin as a carrier protein was used. Inocula were prepared by resuspending colonies from a BAP (please spell out this term) in medium and adjusting the suspension to match that of a 0.5 McFarland standard. The suspension was diluted into fresh medium (as recommended by NCCLS for the organism) to give 2×10^5 to 7×10^5 CFU/ml for bacteria or 2×10^3 to 7×10^3 CFU/ml for Candida. After dispensing 100 μl aliquots of the microbial suspension into each well of a 96-well polypropylene microtiter plate, 11 μl of test compound was added. The MIC was defined as the lowest concentration of drug which prevented visible turbidity after 16 to 20 hours (bacteria) or 46 to 50 hours (Candida) at 35° C.

[2] = system: Pseudomonas aeruginosa; assay type: cell-based; set-up: MIC, lipid length SAR: unit not given here; settings: for MIC: agent alone; for MIC, lipid length SAR: P.aeruginosa
Protocol: as §1

[3] = system: P. aeruginosa; assay type: cell-based; settings: combined with SEQ ID NO: 55
Protocol: (§2) The fractional inhibitory concentration (FIC) index was used to determine the synergy between antimicrobial agents. Peptide MICs against test microorganisms were determined three times on separate occasions. […]

[4] = system: Trychophyton mentagrophytes; experiment: MIC100 against dermatophyte Trychophyton mentagrophytes; assay type: cell-based; settings: T. mentagrophytes; at 10 days
Protocol: (§3) In order to compare the activity of various antimicrobial peptides, including hexapeptide SEQ ID NO:1 (P0666), MIC were determined against the dermatophytes Trychophyton rubrum and Trychophyton mentagrophytes. The concentration of samples investigated were: 2000, 1000, 500, 250 and 125 μg/ml, respectively. The medium used was modified Sabouraud's media without agar. For a 100 mL of modified Sabouraud medium: 3 g of Sabouraud's dextrose broth (Difco) was mixed into 100 mL of deionized water. The pH was adjusted to 7.0 with 0.1 N NaOH. The solution was autoclaved for thirty minutes. 940 μL of medium was poured into sterile 20 mL test tubes with plastic caps and was allowed to cool.
(§4) 50 μL of […] was added to each 20 mL test tube to make the required concentration. A control tube was composed of 50 μL of saline without sample. For the MIC experiments,
(§5) 10 μL of organism suspended in saline was added to the each 20 mL test tube and vortexed slightly. Each of the test tubes was covered in parafilm and maintained on a shaker at 27° C. at a speed of approximately 100 rpm.
(§6) The growth/inhibition of the organism was observed on a daily basis. […] The Minimum Inhibition Concentration (MIC100) for compounds F1 to F10 against fungus Trychophyton rubrum and Trychophyton mentagrophytes at 10 days.

[5] = system: Trychophyton rubrum; experiment: MIC100 against dermatophyte Trychophyton rubrum; assay type: cell-based; settings: T. rubrum; at 10 days
Protocol: as §3, §4, §5, §6

[6] = system: Candida albicans; assay type: cell-based
Protocol: as §1

[7] = set-up: species or system Sprague-Dawley rats; settings: rat, in vivo
Description: Each wound observed at each dressing change and the wound surface and tissue reaction assessed. There were 5 parameters of wound status that were checked: • i. Wound Film Security—Was the adhesive film used to cover the wound still completely adherent to the skin around the wound? • ii. Wound Surface—What was the exact visual appearance of the wound surface? • iii. Amount of Exudate—How much exudate was trapped under the film? In many cases, accumulated exudate causes the film to lose adherence and the exudates will escape. • iv. Severity of Tissue Reaction—A subjective rating of extent of tissue reaction on a scale of 1 (minimal), 2 (moderate), 3 (extensive). • v. % of Tissue Involved—In some situations, the wound surface contained denatures, friable tissue that could be wiped off with pressure applied to gauze. This test was used to better differentiate denatured tissue from viscous exudates.

[8] = system: azole resistant strains of C. albicans; assay type: cell-based; set-up: MIC-SEQ ID NO: 55 + azole, peptide part / MIC-SEQ ID NO: 55 + azole, azole part: unit not given beside the values; settings: in combination with SEQ ID NO: 55
Protocol: as §2
All strains are azole resistant clinical isolates from Prof. Ted White (Seattle Biotechnology Research Institute, Seattle)

[9] = system: MRSA; experiment: Kill curve in 10% sheep serum-phosphate buffer against MRSA; assay type: cell-based, S. aureus; set-up: MRSA count in kill curve: unit not given here
[10] = system: P. acnes; experiment: Activity against extended panel of P. acnes; assay type: cell-based; set-up: unit not given here
Description: A very promising application for short bioactive peptides is for dermatological indications such as acne.

[11] = system: Salmonella typhimurium 14028S; experiment: MIC, broth microdilution, S. typhimurium; assay type: cell-based; set-up: unit not given here; settings: S.typhimurium
Protocol: as §1

CCCCCCCCCCCCC(=O)N[C@@H](CCCCN)C(=O)N[C@@H](Cc1ccccc1)C(=O)N[C@@H](CCCCN)C(=O)N[C@@H](Cc1c[nH]c2ccccc12)C(=O)N1CCC[C@H]1C(=O)N[C@@H](Cc1c[nH]c2ccccc12)C(N)=O [compound 80] (Tridecanoyl-KFKWPW-NH2)
Minimal Inhibitory Concentrations (Mics) [1]: 2-4 Mg/Ml

polymyxin B [reference compound]
MIC ([2]; P. aeruginosa 100609, tobromycin resistant): 0.5 µg/mL
MIC ([2]; P. aeruginosa H187, wide type): 0.5 µg/mL
MIC ([2]; P. aeruginosa H401, mucoid clinical isolate): 0.25 µg/mL
MIC ([2]; P. aeruginosa M917, multi-drug resistant clinical isolate): 1 µg/mL
MIC-PXB-combined ([3]; P. aeruginosa 100609): 0.125 µg/mL
MIC-PXB-combined ([3]; P. aeruginosa H187): 0.06 µg/mL
MIC-PXB-combined ([3]; P. aeruginosa H401): 0.0625 µg/mL
MIC-PXB-combined ([3]; P. aeruginosa M917): 0.25 µg/mL

FALKALKKLKKALKKAL-NH2 [SEQ ID NO: 86]
MIC100 [4]: 250 µg/mL
MIC100 [5]: 1000 µg/mL

CCCCCCCCCCCCCCC(=O)N[C@@H](CCCCN)C(=O)N[C@@H](Cc1ccccc1)C(=O)N[C@@H](CCCCN)C(=O)N[C@@H](Cc1c[nH]c2ccccc12)C(=O)N1CCC[C@H]1C(=O)N[C@@H](Cc1c[nH]c2ccccc12)C(N)=O [compound 78] (Pentadecanoyl-KFKWPW-NH2)
Minimal Inhibitory Concentrations (Mics) [1]: 32-64 Mg/Ml

CCCCCCCCCCCCCC(=O)N[C@@H](CCCCN)C(=O)N[C@@H](Cc1ccccc1)C(=O)N[C@@H](CCCCN)C(=O)N[C@@H](Cc1c[nH]c2ccccc12)C(=O)N1CCC[C@H]1C(=O)N[C@@H](Cc1c[nH]c2ccccc12)C(N)=O [compound 77] (Myristoyl-KFKWPW-NH2)
Minimal Inhibitory Concentrations (Mics) [6]: 4-8 Mg/Ml
Minimal Inhibitory Concentrations (Mics) [1]: 8-16 Mg/Ml
Minimal Inhibitory Concentrations (Mics) [2]: 64-128 Mg/Ml

FAKLLAKLAKKLL-NH2 [SEQ ID NO: 89]
MIC100 [4]: 500 µg/mL
MIC100 [5]: 500 µg/mL

CC(C)C[C@H](NC(=O)[C@H](C)NC(=O)[C@H](CC(C)C)NC(=O)[C@H](CCCCN)NC(=O)[C@H](C)NC(=O)[C@H](CC(C)C)NC(=O)[C@H](CCCCN)NC(=O)[C@H](CCCCN)NC(=O)[C@H](C)NC(=O)[C@H](CC(C)C)NC(=O)[C@H](CCCCN)NC(=O)[C@H](C)NC(=O)[C@H](CC(C)C)NC(=O)[C@H](CCCCN)NC(=O)[C@H](CCCCN)NC(=O)[C@H](C)NC(=O)[C@@H](N)C(C)C)C(N)=O [SEQ ID NO: 88, VAKKLAKLAKKLAKLAL-NH2]
Amount of exudate [7]: S/y
tissue reaction (in words) [7]: mild to moderate

FAKLLAKALKKLL-NH2 [SEQ ID NO: 87]
MIC100 [4]: 500 µg/mL
MIC100 [5]: 500 µg/mL

CCCCCCCCCCCC(=O)N[C@@H](CCCCN)C(=O)N[C@@H](Cc1ccccc1)C(=O)N[C@@H](CCCCN)C(=O)N[C@@H](Cc1c[nH]c2ccccc12)C(=O)N1CCC[C@H]1C(=O)N[C@@H](Cc1c[nH]c2ccccc12)C(N)=O [compound 72] (Lauroyl-KFKWPW-NH2)
Minimal Inhibitory Concentrations (Mics) [1]: 4-8 Mg/Ml

Clc1ccccc1C(c1ccccc1)(c1ccccc1)n1ccnc1 [Clotrimazole, clotrimazole, reference compound]
MIC ([6]; T.W. Candida #184, azole resistant clinical isolate): > 256 µg/mL
MIC ([6]; T.W. Candida #185 (CDR1,2), azole resistant clinical isolate): 128 µg/mL (≈ 371 µM)
MIC ([6]; T.W. Candida #186 (CDR1,2), azole resistant clinical isolate): 32 µg/mL (≈ 92.8 µM)
MIC ([6]; T.W. Candida #187 (CDR1,2), azole resistant clinical isolate): > 256 µg/mL
MIC ([6]; T.W. Candida #192 (CDR1,2), azole resistant clinical isolate): 128 µg/mL (≈ 371 µM)
MIC ([6]; T.W. Candida #193, azole resistant clinical isolate): 0.5 µg/mL (≈ 1.45 µM)
MIC ([6]; T.W. Candida #194, azole resistant clinical isolate): > 256 µg/mL
MIC ([6]; T.W. Candida #195, azole resistant clinical isolate): 256 µg/mL (≈ 742 µM)
MIC ([6]; T.W. Candida #196 (CDR1,2), azole resistant clinical isolate): 64 µg/mL (≈ 186 µM)
MIC ([6]; T.W. Candida #197, azole resistant clinical isolate): > 256 µg/mL
MIC ([6]; T.W. Candida #198, azole resistant clinical isolate): > 256 µg/mL
MIC ([6]; T.W. Candida #199 (CDR1,2), azole resistant clinical isolate): 64 µg/mL (≈ 186 µM)
MIC-SEQ ID NO: 55 + azole, azole part ([8]; C. albicans #185): 12.5
MIC-SEQ ID NO: 55 + azole, azole part ([8]; C. albicans #186): 12.5
MIC-SEQ ID NO: 55 + azole, azole part ([8]; C. albicans #187): 25
MIC-SEQ ID NO: 55 + azole, azole part ([8]; C. albicans #192): 50
MIC-SEQ ID NO: 55 + azole, azole part ([8]; C. albicans #196): 50
MIC-SEQ ID NO: 55 + azole, azole part ([8]; C. albicans #199): 25

H-KWKWFW-NH2 [compound 3]
Minimal Inhibitory Concentrations (Mics) [6]: 64-64 Mg/Ml
Minimal Inhibitory Concentrations (Mics) [1]: 32-64 Mg/Ml

H-RFKWFW-NH2 [compound 7]
Minimal Inhibitory Concentrations (Mics) ([6]; C. albicans strain 105): 64-128^1 Mg/Ml
Minimal Inhibitory Concentrations (Mics) [1]: 64-128 Mg/Ml

KFKWPW-NH2 [SEQ ID NO: 1, KFKWPW-NH2]
MIC100 [4]: 250 µg/mL
MIC, lipid length SAR [2]: 32
MIC100 [5]: 250 µg/mL
MRSA count in kill curve ([9]; buffer, 2 mg/ml, 30 min): 99200
MRSA count in kill curve ([9]; buffer, 2 mg/ml, 1 hour): 62800
MRSA count in kill curve ([9]; buffer, 2 mg/ml, 2 hours): 99200
MRSA count in kill curve ([9]; buffer, 2 mg/ml, 3 hours): 99200
MRSA count in kill curve ([9]; buffer, 2 mg/ml, 4 hours): 99200
MRSA count in kill curve ([9]; buffer, 2 mg/ml, 5 hours): 99200
MRSA count in kill curve ([9]; serum, 1 mg/ml, 30 min): 102300
MRSA count in kill curve ([9]; serum, 1 mg/ml, 1 hour): 99600
MRSA count in kill curve ([9]; serum, 1 mg/ml, 2 hours): 15110
MRSA count in kill curve ([9]; serum, 1 mg/ml, 3 hours): 12080
MRSA count in kill curve ([9]; serum, 1 mg/ml, 4 hours): 5020
MRSA count in kill curve ([9]; serum, 1 mg/ml, 5 hours): 2570
MRSA count in kill curve ([9]; serum, 2 mg/ml, 30 min): 9800
MRSA count in kill curve ([9]; serum, 2 mg/ml, 1 hour): 3200
MRSA count in kill curve ([9]; serum, 2 mg/ml, 2 hours): 630
MRSA count in kill curve ([9]; serum, 2 mg/ml, 3 hours): 250
MRSA count in kill curve ([9]; serum, 2 mg/ml, 4 hours): 70
MRSA count in kill curve ([9]; serum, 2 mg/ml, 5 hours): 50

Lau-KFKWPW-NH2 (Lauroyl-KFKWPW-NH2; SMILES CCCCCCCCCCCC(=O)N[C@@H](CCCCN)C(=O)N[C@@H](Cc1ccccc1)C(=O)N[C@@H](CCCCN)C(=O)N[C@@H](Cc1c[nH]c2ccccc12)C(=O)N1CCC[C@H]1C(=O)N[C@@H](Cc1c[nH]c2ccccc12)C(N)=O) [SEQ ID NO: 72]
Activity (MIC) against P. acnes ([10]; ATCC 6922): 1
Activity (MIC) against P. acnes ([10]; ATCC 6923): 1
Activity (MIC) against P. acnes ([10]; ATCC 25746): 1
Activity (MIC) against P. acnes ([10]; ATCC 29399): 2
Activity (MIC) against P. acnes ([10]; ATCC 33179): 1
Activity (MIC) against P. acnes ([10]; ATCC 51277): 1
MIC, lipid length SAR [2]: 32
MIC, lipid length SAR [11]: 32

Myr-KFKWPW-NH2 (Myristoyl-KFKWPW-NH2; SMILES CCCCCCCCCCCCCC(=O)N[C@@H](CCCCN)C(=O)N[C@@H](Cc1ccccc1)C(=O)N[C@@H](CCCCN)C(=O)N[C@@H](Cc1c[nH]c2ccccc12)C(=O)N1CCC[C@H]1C(=O)N[C@@H](Cc1c[nH]c2ccccc12)C(N)=O) [SEQ ID NO: 77]
MIC, lipid length SAR [2]: 64-128
MIC, lipid length SAR [11]: >128
